Laboratory results: ChEMBL document CHEMBL1201862, “PubChem BioAssay data set” (2004)
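Test compounds were applied to cells in 96-well plates for 48 hours at 5 doses. Here, GI50 denotes the concentration required for 50% inhibition of growth.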 Calls of active or inactive are those of the source. No stated cut-off is given here; in the data, active = GI50 up to about 1.1 µM and inactive = higher.

Key:
Experiment in all cases: growth of human tumour cells (NCI), 48 h
SF-295 = system: SF-295
786-0 = system: 786-0
CCRF-CEM = system: CCRF-CEM
NCI-H226 = system: NCI-H226
HL-60 = system: HL-60
U-251 = system: U-251
RXF 393 = system: RXF 393
SF-539 = system: SF-539
SK-MEL-28 = system: SK-MEL-28
K562 = system: K562
HOP-18 = system: HOP-18
NCI-H460 = system: NCI-H460
OVCAR-3 = system: OVCAR-3
HOP-92 = system: HOP-92
SK-MEL-2 = system: SK-MEL-2
MOLT-4 = system: MOLT-4
SW-620 = system: SW-620
UACC-257 = system: UACC-257
UO-31 = system: UO-31
BT-549 = system: BT-549

Measured: GI50

O=C(Cc1nc2sc3c(c2c(=O)[nH]1)CCCC3)Nc1ccccc1
inactive: SF-295 > 100 µM | 786-0 71.1 µM | CCRF-CEM > 100 µM | NCI-H226 > 100 µM | HL-60 > 100 µM | U-251 > 100 µM | RXF 393 15.5 µM | SF-539 73.6 µM | SK-MEL-28 > 100 µM | K562 > 100 µM | HOP-18 > 100 µM | NCI-H460 > 100 µM | OVCAR-3 > 100 µM | HOP-92 > 100 µM | SK-MEL-2 > 100 µM | MOLT-4 > 100 µM | SW-620 > 100 µM

Oc1cccc(-c2cccc(O)n2)n1
inactive: SF-295 > 100 µM | 786-0 > 100 µM | CCRF-CEM > 100 µM | NCI-H226 > 100 µM | HL-60 > 100 µM | U-251 > 100 µM | RXF 393 > 100 µM | SF-539 > 100 µM | UACC-257 > 100 µM | SK-MEL-28 > 100 µM | K562 > 100 µM | HOP-18 > 100 µM | NCI-H460 > 100 µM | OVCAR-3 > 100 µM | HOP-92 26.3 µM | MOLT-4 > 100 µM | UO-31 > 100 µM | SW-620 > 100 µM

N=C(N)NS(=O)(=O)c1ccc(Nc2c3ccccc3nc3ccc(C(=O)Nc4ccc(S(N)(=O)=O)cc4)cc23)cc1
inactive: SF-295 > 100 µM | 786-0 > 100 µM | CCRF-CEM > 100 µM | BT-549 > 100 µM | NCI-H226 > 100 µM | HL-60 > 100 µM | U-251 > 100 µM | RXF 393 > 100 µM | SF-539 > 100 µM | UACC-257 > 100 µM | SK-MEL-28 > 100 µM | K562 > 100 µM | NCI-H460 > 100 µM | OVCAR-3 > 100 µM | HOP-92 > 100 µM | SK-MEL-2 > 100 µM | MOLT-4 > 100 µM | UO-31 > 100 µM | SW-620 > 100 µM

Cn1nc(-c2cccc(-c3nn(C)/c(=N\CCO)s3)n2)s/c1=N/CCO
inactive: SF-295 > 100 µM | 786-0 > 100 µM | CCRF-CEM > 100 µM | NCI-H226 > 100 µM | HL-60 > 100 µM | U-251 > 100 µM | RXF 393 > 100 µM | SF-539 > 100 µM | UACC-257 > 100 µM | SK-MEL-28 > 100 µM | K562 > 100 µM | HOP-18 > 100 µM | NCI-H460 > 100 µM | HOP-92 > 100 µM | MOLT-4 > 100 µM | SW-620 > 100 µM

CC1OC23CCCCC2C(C#N)(C#N)C1(C#N)C(=N)O3 (centres undefined)
inactive: SF-295 70 µM | 786-0 12.8 µM | CCRF-CEM 5.94 µM | BT-549 17.7 µM | NCI-H226 > 100 µM | HL-60 4.21 µM | U-251 22.8 µM | RXF 393 19.7 µM | SF-539 21.8 µM | UACC-257 18 µM | SK-MEL-28 21.7 µM | K562 13.7 µM | NCI-H460 17.9 µM | OVCAR-3 17.7 µM | HOP-92 13.8 µM | SK-MEL-2 19.9 µM | MOLT-4 23.2 µM | UO-31 > 10 µM | SW-620 8.75 µM

C=CCCCCOC1C=CC(O)C(CO)O1 (centres undefined)
inactive: SF-295 > 100 µM | 786-0 > 100 µM | CCRF-CEM > 100 µM | BT-549 > 100 µM | NCI-H226 > 100 µM | HL-60 > 100 µM | U-251 > 100 µM | RXF 393 > 100 µM | SF-539 > 100 µM | UACC-257 > 100 µM | SK-MEL-28 > 100 µM | K562 > 100 µM | NCI-H460 > 100 µM | OVCAR-3 > 100 µM | HOP-92 > 100 µM | SK-MEL-2 > 100 µM | MOLT-4 > 100 µM | UO-31 > 100 µM | SW-620 > 100 µM

NCCCCC(=O)c1cccnc1
inactive: SF-295 > 100 µM | 786-0 > 100 µM | CCRF-CEM > 100 µM | HL-60 > 100 µM | U-251 > 100 µM | SF-539 > 100 µM | UACC-257 > 100 µM | SK-MEL-28 > 100 µM | K562 > 100 µM | HOP-18 > 100 µM | NCI-H460 > 100 µM | OVCAR-3 > 100 µM | HOP-92 > 100 µM | SK-MEL-2 > 100 µM | MOLT-4 > 100 µM | UO-31 > 100 µM | SW-620 > 100 µM

O=c1c(Cl)c(Cl)cnn1CCc1ccncc1
inactive: SF-295 29.5 µM | 786-0 19.6 µM | CCRF-CEM 19.1 µM | NCI-H226 29.4 µM | HL-60 21.8 µM | RXF 393 24.6 µM | SF-539 21.5 µM | UACC-257 17.7 µM | SK-MEL-28 16.4 µM | K562 35.3 µM | HOP-18 20 µM | NCI-H460 20.1 µM | OVCAR-3 17.6 µM | HOP-92 20.4 µM | SK-MEL-2 20.3 µM | MOLT-4 82.6 µM | UO-31 20.8 µM | SW-620 19.1 µM

CC(C)(CN1CCCCC1)C(=O)/C=C/c1ccc(Cl)cc1
inactive: SF-295 3.03 µM | 786-0 2.72 µM | CCRF-CEM 2.09 µM | NCI-H226 4.41 µM | HL-60 2.15 µM | U-251 3.51 µM | RXF 393 3.86 µM | SF-539 2.23 µM | UACC-257 6.4 µM | SK-MEL-28 8.17 µM | K562 2.69 µM | HOP-18 11.1 µM | NCI-H460 2.69 µM | OVCAR-3 2.77 µM | HOP-92 1.6 µM | MOLT-4 1.81 µM | UO-31 7.5 µM | SW-620 2.57 µM

CC(C)C1(O)C(c2ccccc2)=C(c2ccccc2)C(c2ccccc2)=C1c1ccccc1
inactive: SF-295 12.6 µM | 786-0 5.78 µM | CCRF-CEM 5.09 µM | NCI-H226 7.26 µM | HL-60 2.65 µM | U-251 5.11 µM | RXF 393 2.82 µM | SF-539 12.5 µM | UACC-257 5.36 µM | K562 3.52 µM | HOP-18 10.9 µM | NCI-H460 6.95 µM | OVCAR-3 4.71 µM | HOP-92 4.38 µM | SK-MEL-2 5.33 µM | MOLT-4 3.21 µM | UO-31 2.46 µM | SW-620 6.12 µM

C/C(=N/NS(=O)(=O)c1ccccc1)c1cccc[n+]1[O-]
inactive: SF-295 > 100 µM | 786-0 > 100 µM | CCRF-CEM > 100 µM | HL-60 > 100 µM | U-251 > 100 µM | SF-539 > 100 µM | UACC-257 > 100 µM | SK-MEL-28 > 100 µM | HOP-18 > 100 µM | NCI-H460 > 100 µM | OVCAR-3 > 100 µM | HOP-92 > 100 µM | MOLT-4 > 100 µM | UO-31 > 100 µM | SW-620 > 100 µM

CC(C)(C)OC(=O)NC1CC=CCC1NC(=O)OC(C)(C)C (centres undefined)
inactive: SF-295 > 100 µM | 786-0 > 100 µM | CCRF-CEM > 100 µM | BT-549 > 100 µM | NCI-H226 > 100 µM | HL-60 > 100 µM | U-251 > 100 µM | RXF 393 95.5 µM | SF-539 > 100 µM | UACC-257 > 100 µM | SK-MEL-28 > 100 µM | K562 97.9 µM | NCI-H460 > 100 µM | OVCAR-3 > 100 µM | HOP-92 > 100 µM | SK-MEL-2 > 100 µM | MOLT-4 > 100 µM | UO-31 > 100 µM | SW-620 > 100 µM

COc1ccccc1C1Nn2c(nc3ccccc3c2=O)N1c1ccc(C)cc1 (centres undefined)
inactive: SF-295 4.94 µM | 786-0 2.67 µM | CCRF-CEM 1.82 µM | BT-549 21.8 µM | NCI-H226 2.77 µM | HL-60 10.6 µM | U-251 2.04 µM | RXF 393 10 µM | SF-539 3.51 µM | UACC-257 16.3 µM | SK-MEL-28 5.94 µM | K562 7.83 µM | NCI-H460 3.37 µM | OVCAR-3 4.65 µM | HOP-92 10.4 µM | SK-MEL-2 11.4 µM | MOLT-4 1.47 µM | UO-31 6.73 µM | SW-620 5.28 µM

CC1O[C@@H]2CCCCC(=O)[C@]2(C)[C@H]1C (some centres undefined)
inactive: SF-295 > 100 µM | 786-0 > 100 µM | CCRF-CEM > 100 µM | NCI-H226 > 100 µM | HL-60 > 100 µM | U-251 > 100 µM | RXF 393 70.3 µM | UACC-257 > 100 µM | SK-MEL-28 > 100 µM | K562 > 100 µM | HOP-18 > 100 µM | NCI-H460 > 100 µM | OVCAR-3 > 100 µM | HOP-92 > 100 µM | SK-MEL-2 > 100 µM | MOLT-4 > 100 µM | UO-31 > 100 µM | SW-620 > 100 µM

CO[C@H]1C[C@H](O[C@H]2CC[C@]3(C=O)[C@H]4CC[C@]5(C)[C@@H](C6=CC(=O)OC6)CC[C@]5(O)[C@@H]4CC[C@]3(O)C2)O[C@H](C)[C@H]1O[C@@H]1O[C@H](CO)[C@@H](O)[C@H](O)[C@H]1O
active: SF-295 2.04e-05 µM | 786-0 > 0.01 µM | CCRF-CEM > 0.01 µM | BT-549 1.22e-05 µM | NCI-H226 7.85e-05 µM | HL-60 > 0.01 µM | U-251 4.07e-05 µM | RXF 393 1.51e-05 µM | SF-539 2.03e-05 µM | UACC-257 8.22e-05 µM | SK-MEL-28 6.43e-05 µM | K562 > 0.01 µM | NCI-H460 9.04e-06 µM | OVCAR-3 7.67e-06 µM | HOP-92 5.83e-05 µM | SK-MEL-2 8.26e-05 µM | MOLT-4 5.42e-06 µM | UO-31 3.49e-05 µM | SW-620 3.16e-05 µM
